# Results as given in patent US12649750B2, “Macrocyclic compounds, compositions, and methods of using thereof” (Sionna Therapeutics Inc., priority 2022, dated 2026).
# How the values were obtained:
# NBD1 = target: T1, NBD1 (Homo sapiens, UniProt P13569); assay: Aggregation analysis using differential static light scattering (DSLS), thermal stability of NBD1 (ΔTagg); format: binding; details: ΔTagg versus DMSO control, NBD1 0.2 mg/ml
# T1 construct: Purified recombinant NBD1 was produced using previously described methods; made in house
# T1 sequence (P13569 423-646 limits assumed): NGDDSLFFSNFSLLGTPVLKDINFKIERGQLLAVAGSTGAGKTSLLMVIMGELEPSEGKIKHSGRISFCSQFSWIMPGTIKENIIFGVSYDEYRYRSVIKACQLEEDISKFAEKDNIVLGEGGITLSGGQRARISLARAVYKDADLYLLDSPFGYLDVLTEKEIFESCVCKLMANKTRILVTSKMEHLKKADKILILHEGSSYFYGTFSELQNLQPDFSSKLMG
# Outline: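 Thermal aggregation of purified NBD1 was followed by static light scattering during a 1° C./min ramp to 70° C. Protein was at 0.2 mg/ml with 2 mM ATP at pH7.6. Each compound's Tagg was referenced to DMSO controls.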
# CFTR = target: T2, CFTR (Homo sapiens, UniProt P13569, DEL508-508); assay: TECC24 AUC fold over DMSO @10 μM, CFTR-mediated transepithelial chloride transport in CF-HBE cells; format: cell-based; details: test agent AUC divided by DMSO vehicle AUC, primary CF-HBE cells, ΔF508 homozygous donor, 48 hours incubation
# T2 construct: Primary human bronchial epithelial cells from a ΔF508 homozygous CF donor; host or cells: primary human bronchial epithelial cells (CF-HBE), ΔF508 homozygous donor
# T2 sequence (P13569 with tags, fused parts or gaps DEL508-508): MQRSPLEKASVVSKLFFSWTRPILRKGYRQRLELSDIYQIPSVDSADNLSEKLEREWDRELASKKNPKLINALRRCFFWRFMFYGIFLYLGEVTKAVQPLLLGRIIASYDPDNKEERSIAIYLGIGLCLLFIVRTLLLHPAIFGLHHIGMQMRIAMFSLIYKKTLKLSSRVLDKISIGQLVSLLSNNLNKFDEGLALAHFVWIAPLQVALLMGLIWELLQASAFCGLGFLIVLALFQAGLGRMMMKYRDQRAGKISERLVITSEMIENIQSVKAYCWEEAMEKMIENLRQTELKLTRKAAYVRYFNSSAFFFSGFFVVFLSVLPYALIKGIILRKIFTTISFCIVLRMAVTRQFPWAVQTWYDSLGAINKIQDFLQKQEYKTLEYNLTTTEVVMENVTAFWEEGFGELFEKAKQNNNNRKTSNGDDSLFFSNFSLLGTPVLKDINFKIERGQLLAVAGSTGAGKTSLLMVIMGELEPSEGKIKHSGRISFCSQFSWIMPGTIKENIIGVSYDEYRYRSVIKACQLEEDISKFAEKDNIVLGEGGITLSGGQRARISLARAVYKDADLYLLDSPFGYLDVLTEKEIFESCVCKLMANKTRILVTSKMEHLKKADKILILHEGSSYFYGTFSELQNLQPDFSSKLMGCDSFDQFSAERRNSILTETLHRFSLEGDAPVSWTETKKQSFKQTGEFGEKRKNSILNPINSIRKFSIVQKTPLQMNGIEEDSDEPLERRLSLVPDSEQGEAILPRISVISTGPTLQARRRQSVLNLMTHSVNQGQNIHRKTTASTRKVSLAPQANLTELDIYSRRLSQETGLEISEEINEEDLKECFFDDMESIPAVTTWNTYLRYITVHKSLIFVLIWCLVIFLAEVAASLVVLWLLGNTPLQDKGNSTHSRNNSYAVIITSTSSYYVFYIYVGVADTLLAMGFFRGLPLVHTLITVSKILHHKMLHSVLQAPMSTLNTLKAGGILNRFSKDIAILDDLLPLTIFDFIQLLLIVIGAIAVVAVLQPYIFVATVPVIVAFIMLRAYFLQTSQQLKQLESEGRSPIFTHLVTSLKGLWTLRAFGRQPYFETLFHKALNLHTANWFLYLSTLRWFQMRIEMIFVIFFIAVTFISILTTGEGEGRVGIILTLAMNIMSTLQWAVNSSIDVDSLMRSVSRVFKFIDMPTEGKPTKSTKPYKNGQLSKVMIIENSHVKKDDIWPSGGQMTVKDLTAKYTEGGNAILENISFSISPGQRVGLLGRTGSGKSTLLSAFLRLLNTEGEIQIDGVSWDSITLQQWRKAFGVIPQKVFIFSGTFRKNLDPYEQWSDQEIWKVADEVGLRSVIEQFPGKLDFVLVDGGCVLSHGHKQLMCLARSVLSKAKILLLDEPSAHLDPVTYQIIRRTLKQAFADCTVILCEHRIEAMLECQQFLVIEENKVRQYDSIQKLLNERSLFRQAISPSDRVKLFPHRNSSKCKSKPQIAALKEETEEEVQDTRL
# Outline: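 Value is ratio of test-agent to DMSO AUC of equivalent transepithelial Cl− current, integrated from forskolin (10 μM) stimulation to CFTR inhibitor-172 (20 μM) block, with benzamil 10 μM present. CF-HBE (ΔF508/ΔF508) cultures had 48 h compound exposure at 10 μM, 36.5° C before recording.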
SMILES,DSLS 3D (100 μM ΔT) (NBD1),"TECC (AUC, 10 μM) (CFTR)"
"C[C@@H](Cc1cccc([C@@]2(C)CCCC(C)(C)CS(=O)(=O)CCc3c(c(F)cc4[nH]ccc34)[S+]([O-])c3ccnc(c3)-c3nc2cs3)c1)C(=O)O (single isomer, unassigned) [Compound 239A]",A (an ΔTagg value less than or equal to 5 °C is marked “A”),B (a value between 12-20 is marked “B”)
"C[C@@H](Cc1cccc([C@@]2(C)CCCC(C)(C)CS(=O)(=O)CCc3c(c(F)cc4[nH]ccc34)[S+]([O-])c3ccnc(c3)-c3nc2cs3)c1)C(=O)O (single isomer, unassigned) [Compound 239B]",A (an ΔTagg value less than or equal to 5 °C is marked “A”),A (a TECC value less than 12 is marked “A”)
"C[C@@H](Cc1cccc([C@@]2(C)CCCC(C)(C)CS(=O)(=O)CCc3c(c(F)cc4[nH]ccc34)[S+]([O-])c3ccc(F)c(c3)-c3nc2cs3)c1)C(=O)O (single isomer, unassigned) [Compound 241A]",A (an ΔTagg value less than or equal to 5 °C is marked “A”),C (a value between 20 and 80 is marked “C”)
"C[C@@H](Cc1cccc([C@@]2(C)CCCC(C)(C)CS(=O)(=O)CCc3c(c(F)cc4[nH]ccc34)[S+]([O-])c3ccc(F)c(c3)-c3nc2cs3)c1)C(=O)O (single isomer, unassigned) [Compound 241B]",A (an ΔTagg value less than or equal to 5 °C is marked “A”),A (a TECC value less than 12 is marked “A”)
"Cn1nc2nc1-c1cc(ccn1)[S+]([O-])c1c(F)cc3[nH]ccc3c1CCS(=O)(=O)CC(C)(C)CCC[C@]2(C)c1cccc(CCS(C)(=O)=O)c1 (single isomer, unassigned) [Compound 243A]",B (a value above 5 °C and less than or equal to 10 °C is marked “B”),C (a value between 20 and 80 is marked “C”)
"Cn1nc2nc1-c1cc(ccn1)[S+]([O-])c1c(F)cc3[nH]ccc3c1CCS(=O)(=O)CC(C)(C)CCC[C@]2(C)c1cccc(CCS(C)(=O)=O)c1 (single isomer, unassigned) [Compound 243B]",C (a value greater than 10 °C and less than or equal to 25 °C is marked “C”),C (a value between 20 and 80 is marked “C”)
"C[C@H](Cc1ccc(C2(C)CCCC(C)(C)CS(=O)(=O)CCc3c(c(F)cc4[nH]ccc34)Oc3ccnc(c3)-c3nc2nn3C)s1)C(=O)O (single isomer, unassigned) [Compound 246A]",C (a value greater than 10 °C and less than or equal to 25 °C is marked “C”),B (a value between 12-20 is marked “B”)
"C[C@H](Cc1ccc(C2(C)CCCC(C)(C)CS(=O)(=O)CCc3c(c(F)cc4[nH]ccc34)Oc3ccnc(c3)-c3nc2nn3C)s1)C(=O)O (single isomer, unassigned) [Compound 246B]",A (an ΔTagg value less than or equal to 5 °C is marked “A”),B (a value between 12-20 is marked “B”)
"C[C@@H](Cc1cccc([C@@]2(C)CCCC(C)(C)CS(=O)(=O)CCc3c(c(F)cc4[nH]ccc34)[S+]([O-])c3ccc(F)c(c3)-c3nc2co3)c1)C(=O)O (single isomer, unassigned) [Compound 248A]",C (a value greater than 10 °C and less than or equal to 25 °C is marked “C”),C (a value between 20 and 80 is marked “C”)
"C[C@@H](Cc1cccc([C@@]2(C)CCCC(C)(C)CS(=O)(=O)CCc3c(c(F)cc4[nH]ccc34)[S+]([O-])c3ccc(F)c(c3)-c3nc2co3)c1)C(=O)O (single isomer, unassigned) [Compound 248B]",C (a value greater than 10 °C and less than or equal to 25 °C is marked “C”),A (a TECC value less than 12 is marked “A”)
"Cn1nc2nc1-c1cc(ccn1)[S+]([O-])c1c(F)cc3[nH]ccc3c1CCS(=O)(=O)CC(C)(C)CCC[C@]2(C)c1cccc(CC(=O)O)c1 (single isomer, unassigned) [Compound 249A]",C (a value greater than 10 °C and less than or equal to 25 °C is marked “C”),C (a value between 20 and 80 is marked “C”)
